Consider one molecule from PMC6756013, “B591, a novel specific pan-PI3K inhibitor, preferentially targets cancer stem cells” (Oncogene, 2019).

pIC50: −log10 of the molar value.

For experiment [1], the system named is phosphorylation of Akt and ERK in RD cells. The experiment in a line: Immunoblotting of feedback activation of Akt and ERK. Type of experiment: cell-based, human. The conditions noted are these: up to 24 h, B591 10 μM. The protocol:
(§1) Fig. 2 B591 inhibits PI3K/Akt pathway in multiple cancer cell lines. a Representative images of Akt1 redistribution in IGF-1-treated cells in the absence or presence of B591. Scale bar represents 10 μm. Arrows indicate IGF-1-mediated membrane translocation detected by the image analysis algorithm. b Inhibition of mTORC1 and mTORC2 signaling in multiple cancer cell lines, exposed for 5 h to increasing concentrations of B591. c HepG2 cells were treated with DMSO or 20 μM of B591 for 5 h. Immunofluorescence (red) intensity reflects eIF4E subcellular distribution. Cells were visualized with high content reader. Representative images are shown, and scale bar represents 50 μm. d Nuclear-to-cytoplasmic ratio of eIF4E in five cancer cell lines was determined via high content reader. e The phosphorylation of AKT and ERK was determined by immunoblotting in RD cells in the presence of 10 μM of B591 after indicated time of exposure. f Inhibition of the phosphorylation of AKT and ERK in RD cells treated with B591, PI-103 or Rapamycin for 24 h was determined by immunoblotting
Despite a significant efficacy in preclinical models, the clinical tumor response to mTORC1 inhibitors, such as rapalogs, is modest. […]

In experiment [2] the test system is MDA-MB-231 and SUM-159PT mammospheres. As to the kind of experiment: Secondary mammosphere-formation assay. Type of experiment: cell-based, human. To be noted: primary mammospheres treated 48 h, then passaged. The protocol: Cells were treated with indicated agents for 48 h, and cells were harvested and processed for apoptosis assay using the PE-Annexin V/7-AAD Apoptosis Detection Kit. d Representative flow cytometry plots of apoptosis inducing activity of B591 (10 μM) and paclitaxel (10 nM) on monolayer and mammosphere MDA-MB-231 cells. e B591 preferentially targeted CD44^high/CD24^low cells. Cells were treated with B591 or paclitaxel for 2 days. Following a 4-day recovery period, cells were co-stained with CD44 and CD24 antibodies and subjected to FACS analysis. Representative flow cytometry plots show the effect of B591 on CD44^high/CD24^low population in MDA-MB-231 cells in vitro. f B591 decreased mammosphere forming efficiency. Primary MDA-MB-231 mammospheres were treated with B591 or paclitaxel for 48 h. Results of the secondary mammosphere-formation assay are shown. Scale bar represents 40 μm. g B591 decreased the expression of CSC markers in MDA-MB-231 cells. Cells were treated with B591 or paclitaxel for 2 days. […]
In the mammosphere assay, MDA-MB-231 (Fig. 3f) and SUM-159PT (Supplementary Fig. S10D) cells were treated with B591 or paclitaxel, and the mammospheres were collected and subsequently passaged. Secondary Mammosphere-forming activity was determined, which reflects the self-renewal capability of CSCs. […]

Experiment [3] relates to PI3K/Akt/mTORC1 and mTORC2 signaling in multiple cancer cell lines. As to the kind of experiment: Western blot of PI3K downstream effectors in multiple tumor cell lines. The experiment is classed as cell-based. To be noted: 5 h. On the procedure:
as §1
The key effectors downstream of PI3K were examined by western blot analysis in multiple tumor cell lines with different genetic background. […] Most recent study identified PtdIns(3,4,5)P3, which is generated by activated PI3K, as a direct upstream activator for mTORC2, highlighting the critical role of PI3K in mTORC2 activation. Therefore, the effect of B591 on mTORC2 signaling was evaluated by testing the phosphorylation levels of Akt at Ser473 and its substrate GSK3β at Ser9.
On the technique in general: Immunoblotting shows a protein as a band on a membrane.

For the next experiment, the target named is T1, MET (cMet) (Homo sapiens, UniProt P08581).
T1 construct: purchased Life Technologies
T1 sequence (P08581 25-1390): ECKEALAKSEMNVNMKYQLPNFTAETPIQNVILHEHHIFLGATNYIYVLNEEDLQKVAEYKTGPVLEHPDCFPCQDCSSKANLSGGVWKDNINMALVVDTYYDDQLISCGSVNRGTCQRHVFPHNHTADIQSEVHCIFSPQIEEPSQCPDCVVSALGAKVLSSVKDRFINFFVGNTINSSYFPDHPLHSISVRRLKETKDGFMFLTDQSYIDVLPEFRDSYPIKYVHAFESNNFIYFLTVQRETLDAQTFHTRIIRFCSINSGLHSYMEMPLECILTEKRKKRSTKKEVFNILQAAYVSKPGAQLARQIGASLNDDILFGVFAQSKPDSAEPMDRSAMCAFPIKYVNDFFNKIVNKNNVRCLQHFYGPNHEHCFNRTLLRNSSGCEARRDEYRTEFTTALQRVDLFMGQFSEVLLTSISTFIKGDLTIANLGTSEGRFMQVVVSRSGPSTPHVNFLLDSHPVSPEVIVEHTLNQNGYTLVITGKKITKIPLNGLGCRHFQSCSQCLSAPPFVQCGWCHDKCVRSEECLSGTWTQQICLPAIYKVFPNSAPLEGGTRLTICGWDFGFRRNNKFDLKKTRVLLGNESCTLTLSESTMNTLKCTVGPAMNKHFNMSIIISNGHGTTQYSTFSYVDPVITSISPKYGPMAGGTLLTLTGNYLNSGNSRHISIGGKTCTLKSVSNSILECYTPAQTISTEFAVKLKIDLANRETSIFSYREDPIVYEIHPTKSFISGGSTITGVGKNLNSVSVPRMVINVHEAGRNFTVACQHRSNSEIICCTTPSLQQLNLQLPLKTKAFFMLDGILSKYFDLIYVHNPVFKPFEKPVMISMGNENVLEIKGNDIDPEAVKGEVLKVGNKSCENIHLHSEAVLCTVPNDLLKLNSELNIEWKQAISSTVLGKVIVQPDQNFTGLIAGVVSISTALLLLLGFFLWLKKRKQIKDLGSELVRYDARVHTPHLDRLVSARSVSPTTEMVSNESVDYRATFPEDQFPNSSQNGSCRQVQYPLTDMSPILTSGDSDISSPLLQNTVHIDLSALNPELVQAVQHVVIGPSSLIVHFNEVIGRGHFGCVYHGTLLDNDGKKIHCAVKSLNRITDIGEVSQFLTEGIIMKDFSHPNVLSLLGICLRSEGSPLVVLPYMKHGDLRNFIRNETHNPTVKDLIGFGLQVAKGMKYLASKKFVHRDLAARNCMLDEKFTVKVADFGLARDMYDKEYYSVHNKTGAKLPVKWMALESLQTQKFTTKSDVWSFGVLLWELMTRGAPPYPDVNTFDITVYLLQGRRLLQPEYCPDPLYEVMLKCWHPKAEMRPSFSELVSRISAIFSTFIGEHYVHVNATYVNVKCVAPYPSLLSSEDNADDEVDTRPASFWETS
As to the kind of experiment: Biochemical kinase profiling (Life Technologies). On the procedure: (§2) Purified PI3K Class I Lipid Kinase, including p110α/p85α, p110β/p85α, p110γ, and p110δ/p85α (Promega, Madison, WI, USA), was respectively incubated with B591 for 30 min at room temperature. The activity of PI3K was evaluated using a PI3-Kinase Activity ELISA kit (K-1000s, Echelon, Salt Lake City, UT, USA) according to the manufacture’s instructions. The assay is a competitive ELISA in which the signal is inversely proportional to the amount of PI(3,4,5)P3 produced. After the PI3-Kinase reactions are complete, reaction products are first mixed and incubated with a PI(3,4,5)P3 detector protein, then added to the PI(3,4,5)P3-coated microplate for competitive binding. A peroxidase-linked secondary detector and colorimetric detection is used to detect PI(3,4,5)P3 detector binding to the plate. The colorimetric signal is inversely proportional to the amount of PI(3,4,5)P3 produced by PI3-Kinase. The absorbance was measured at 450 nm with a Multilabel Reader (PerkinElmer, Waltham, MA, USA). ATP competition assays were executed with varying concentrations of ATP, and five concentrations of ATP were 5 μM, 25 μM, 50 μM, 100 μM, and 200 μM respectively. The IC50 values for inhibition of PI3Kβ by B591 were determined at indicated concentrations of ATP. In addition, B591 selectivity was tested against 39 kinases at Life Technologies.

In a further experiment the target is IGF1R (Homo sapiens, UniProt P08069). The experiment in a line: Biochemical kinase profiling (Life Technologies). On the procedure: as §2
Chain of IGF1R (P08069 31-1367): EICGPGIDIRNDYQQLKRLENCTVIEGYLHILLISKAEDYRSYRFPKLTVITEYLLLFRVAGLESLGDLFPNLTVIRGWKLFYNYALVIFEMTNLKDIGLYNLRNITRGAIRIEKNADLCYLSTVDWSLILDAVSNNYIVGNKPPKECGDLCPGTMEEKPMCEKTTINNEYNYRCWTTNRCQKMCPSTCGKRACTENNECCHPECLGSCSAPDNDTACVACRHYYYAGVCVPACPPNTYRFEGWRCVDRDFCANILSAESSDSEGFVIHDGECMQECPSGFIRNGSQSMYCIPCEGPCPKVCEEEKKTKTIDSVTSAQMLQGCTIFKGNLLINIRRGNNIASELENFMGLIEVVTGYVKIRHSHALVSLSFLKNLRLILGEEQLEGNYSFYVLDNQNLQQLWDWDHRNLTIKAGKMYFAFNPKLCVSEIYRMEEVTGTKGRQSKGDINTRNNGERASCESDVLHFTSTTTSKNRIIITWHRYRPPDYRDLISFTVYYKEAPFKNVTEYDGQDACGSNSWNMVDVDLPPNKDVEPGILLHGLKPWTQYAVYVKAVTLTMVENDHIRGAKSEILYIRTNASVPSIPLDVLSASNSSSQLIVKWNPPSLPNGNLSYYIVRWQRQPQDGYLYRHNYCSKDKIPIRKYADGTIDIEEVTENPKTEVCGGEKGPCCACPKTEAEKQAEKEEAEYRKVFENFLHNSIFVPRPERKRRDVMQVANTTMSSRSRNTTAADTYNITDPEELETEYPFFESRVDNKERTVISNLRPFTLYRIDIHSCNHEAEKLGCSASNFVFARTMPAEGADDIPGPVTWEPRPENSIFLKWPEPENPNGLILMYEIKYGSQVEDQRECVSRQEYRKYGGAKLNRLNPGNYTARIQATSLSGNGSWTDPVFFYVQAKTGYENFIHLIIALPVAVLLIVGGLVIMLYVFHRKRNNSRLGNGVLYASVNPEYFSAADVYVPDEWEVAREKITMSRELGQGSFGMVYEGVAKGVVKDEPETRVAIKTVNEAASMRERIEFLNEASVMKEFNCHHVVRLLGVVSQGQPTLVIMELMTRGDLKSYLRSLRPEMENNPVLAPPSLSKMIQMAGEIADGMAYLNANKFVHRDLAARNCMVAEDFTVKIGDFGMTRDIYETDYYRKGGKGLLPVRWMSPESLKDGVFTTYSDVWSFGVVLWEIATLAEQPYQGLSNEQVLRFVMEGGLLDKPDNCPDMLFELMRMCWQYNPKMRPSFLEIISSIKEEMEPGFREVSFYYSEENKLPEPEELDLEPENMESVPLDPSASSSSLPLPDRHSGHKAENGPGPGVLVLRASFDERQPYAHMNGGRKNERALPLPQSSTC
For a further experiment, the target named is GSK3A (GSK3 alpha) (Homo sapiens, UniProt P49840). As to the kind of experiment: Biochemical kinase profiling (Life Technologies). The protocol:
as §2

Another experiment addresses T2, FLT1 (VEGFR1) (Homo sapiens, UniProt P17948).
T2 construct: purchased Life Technologies
As to the kind of experiment: Biochemical kinase profiling (Life Technologies). The protocol: as §2

A further experiment addresses FYN (Homo sapiens, UniProt P06241). As to the kind of experiment: Biochemical kinase profiling (Life Technologies). On the procedure: as §2
For the next experiment, the target named is SYK (Homo sapiens, UniProt P43405). As to the kind of experiment: Biochemical kinase profiling (Life Technologies). The protocol: as §2

Chain of GSK3A (GSK3 alpha) (P49840 whole entry): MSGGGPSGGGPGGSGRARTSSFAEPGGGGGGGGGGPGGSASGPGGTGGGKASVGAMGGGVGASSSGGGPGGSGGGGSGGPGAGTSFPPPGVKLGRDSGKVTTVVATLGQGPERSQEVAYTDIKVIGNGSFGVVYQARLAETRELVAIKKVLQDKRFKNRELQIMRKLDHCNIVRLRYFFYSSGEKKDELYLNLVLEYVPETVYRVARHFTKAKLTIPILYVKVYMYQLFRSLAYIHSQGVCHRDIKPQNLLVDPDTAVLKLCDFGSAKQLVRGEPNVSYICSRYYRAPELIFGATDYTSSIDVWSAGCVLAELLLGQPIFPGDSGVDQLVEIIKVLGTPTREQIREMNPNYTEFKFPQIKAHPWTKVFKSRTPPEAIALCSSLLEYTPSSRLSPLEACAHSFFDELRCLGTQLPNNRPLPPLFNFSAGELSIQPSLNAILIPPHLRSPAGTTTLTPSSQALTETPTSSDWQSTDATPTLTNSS
T2 sequence (P17948 27-1338): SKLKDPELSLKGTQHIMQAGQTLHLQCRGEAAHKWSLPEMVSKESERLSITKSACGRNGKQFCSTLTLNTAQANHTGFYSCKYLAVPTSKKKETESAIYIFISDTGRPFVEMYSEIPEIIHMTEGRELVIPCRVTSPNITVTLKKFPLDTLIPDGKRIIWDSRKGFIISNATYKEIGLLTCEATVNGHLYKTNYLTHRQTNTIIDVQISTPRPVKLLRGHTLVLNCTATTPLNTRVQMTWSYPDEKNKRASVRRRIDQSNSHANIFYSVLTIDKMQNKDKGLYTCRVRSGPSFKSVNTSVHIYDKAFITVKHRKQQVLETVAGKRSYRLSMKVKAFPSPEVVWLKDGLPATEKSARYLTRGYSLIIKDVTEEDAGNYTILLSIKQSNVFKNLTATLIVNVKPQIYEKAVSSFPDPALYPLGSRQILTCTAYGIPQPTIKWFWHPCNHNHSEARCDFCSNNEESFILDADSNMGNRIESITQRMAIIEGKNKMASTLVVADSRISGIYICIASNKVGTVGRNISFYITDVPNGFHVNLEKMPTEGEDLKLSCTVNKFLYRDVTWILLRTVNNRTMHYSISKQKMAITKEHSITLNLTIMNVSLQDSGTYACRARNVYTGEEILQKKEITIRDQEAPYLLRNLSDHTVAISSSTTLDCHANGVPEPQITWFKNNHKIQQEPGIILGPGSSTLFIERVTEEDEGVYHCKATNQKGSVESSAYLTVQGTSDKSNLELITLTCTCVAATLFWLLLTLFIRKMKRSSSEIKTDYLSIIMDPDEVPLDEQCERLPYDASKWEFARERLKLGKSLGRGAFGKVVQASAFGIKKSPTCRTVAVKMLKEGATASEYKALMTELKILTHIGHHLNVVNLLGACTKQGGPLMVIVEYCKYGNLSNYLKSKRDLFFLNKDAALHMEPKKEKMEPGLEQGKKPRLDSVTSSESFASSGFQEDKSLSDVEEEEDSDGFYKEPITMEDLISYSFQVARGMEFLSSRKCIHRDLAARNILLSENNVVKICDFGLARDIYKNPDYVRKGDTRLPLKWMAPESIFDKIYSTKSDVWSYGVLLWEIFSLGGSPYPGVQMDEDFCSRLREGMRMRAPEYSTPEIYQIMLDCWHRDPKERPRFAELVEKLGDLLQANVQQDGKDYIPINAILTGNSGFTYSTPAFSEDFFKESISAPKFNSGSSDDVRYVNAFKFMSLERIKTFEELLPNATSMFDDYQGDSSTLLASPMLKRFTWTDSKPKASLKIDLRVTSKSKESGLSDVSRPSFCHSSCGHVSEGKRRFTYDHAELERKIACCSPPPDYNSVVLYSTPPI
Chain of FYN (P06241 whole entry): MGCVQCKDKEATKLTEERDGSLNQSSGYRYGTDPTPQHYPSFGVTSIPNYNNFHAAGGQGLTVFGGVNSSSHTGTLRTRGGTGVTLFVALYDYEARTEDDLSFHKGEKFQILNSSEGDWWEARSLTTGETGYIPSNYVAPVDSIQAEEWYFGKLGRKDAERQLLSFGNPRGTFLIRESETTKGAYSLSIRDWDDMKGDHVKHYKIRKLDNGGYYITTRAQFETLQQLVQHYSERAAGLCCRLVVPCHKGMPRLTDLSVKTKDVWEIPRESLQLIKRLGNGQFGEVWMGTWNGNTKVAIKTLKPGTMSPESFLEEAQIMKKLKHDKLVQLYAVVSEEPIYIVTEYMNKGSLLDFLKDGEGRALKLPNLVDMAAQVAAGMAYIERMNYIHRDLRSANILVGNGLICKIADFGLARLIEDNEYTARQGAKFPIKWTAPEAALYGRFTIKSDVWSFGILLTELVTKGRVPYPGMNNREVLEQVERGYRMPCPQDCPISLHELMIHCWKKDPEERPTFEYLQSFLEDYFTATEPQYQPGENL

The pIC50 is the negative decadic logarithm of the IC50, by convention in mol/L. The low end stands for a high IC50, the high end for a low IC50. With `Cc1cc2c(cc1C)[n+](Cc1ccccc1Br)cn2Cc1ccc2c(c1)CCO2.[Br-]` [B591, 3-(2-bromobenzyl)-1-((2,3-dihydrobenzofuran-5-yl)methyl) -5,6-dimethyl-1H-benzo[d]imidazol-3-ium bromide], in experiment [1], the “Phosphorylation of Akt and ERK” value was “effectively suppressed the phosphorylation of Akt and ERK over the whole time course of 24 h”. For the same molecule, the Secondary mammosphere-forming ability entry in experiment [2] is “strikingly suppressed”. Also, the “PI3K/Akt/mTORC1 signaling (phosphorylation of 4E-BP1, S6K1, S6)” value in experiment [3] is recorded as “effectively inhibited PI3K/Akt/mTORC1 signaling”. In experiment [3] (all tested cell types), the “mTORC2 signaling: p-Akt (Ser473) and p-GSK3β (Ser9)” value was “concentration-dependent decrease”. Moreover, the “Phosphorylation of Akt at Thr308” value in [3] (increasing concentrations) is on record as “potently inhibited”. Further, the negative logarithm of the IC50 (pIC50) on MET (cMet), at IGF1R, at GSK3A (GSK3 alpha), at FLT1 (VEGFR1), at FYN and against SYK was below 3.30 throughout.
